Patent US8546451B2 (priority 2005, dated 2013)
Marks after values point to notes of the source that are not given here.

What was measured:
[1] = tested on: LH, serum PSA, free testosterone and total testosterone; experiment: Compound IV study on human males; assay type: in vivo
[2] = molecular target: mineralocorticoids receptor (MR) (Rattus norvegicus (Rat), UniProt P22199); experiment: Cross-reactivity transcriptional activation assay, MR; assay type: cell-based; settings: agonist and antagonist modes
Description: (§1) Compound IV was screened for cross-reactivity against rat isoforms of glucocorticoid receptor (GR), mineralocorticoids receptor (MR), progesterone receptor (PR), androgen receptor (AR) and human isoforms of farnesoid X receptor (FXR), liver X receptor (LXR), peroxisome proliferator-activated receptors (PPAR-α and PPAR-γ), and retinoid X receptor (RXR-α) in both agonist and antagonist modes in transcriptional activation assays.

CYP1A2 [3] = molecular target: CYP1A2 (Homo sapiens (Human), UniProt P05177); experiment: CYP450 inhibition in vitro, CYP1A2; assay type: in vitro ADME; settings: at concentrations <30 μM
serum testosterone = experiment: Recovery of testosterone levels following suppression in rats; assay type: in vivo, Sprague-Dawley rats
Description: Thirty-five (35) male Sprague-Dawley rats weighing approximately 200 g were maintained on a 12-h light/dark cycle with food (2016 Teklad Global 16% Protein Rodent Diet, Harlan, Madison, Wis.) and water available ad libitum. The animal protocol was reviewed and approved by the Institutional Animal Care and Use Committee of the University of Tennessee.
The test article for this study was weighed and dissolved in PEG 300 (100%) (Acros Organics, NJ) to prepare the appropriate dose formulations. Animals were randomly assigned to one of the ten treatment groups (n =5 animals/group). The animals were housed in groups of 2 to 3 animals per cage. Group 1 was sacrificed at the initiation of the study (Day 1) for determination of baseline testosterone levels in intact animals. Groups 2-7 received daily doses of 1, 3, or 30 mg/kg via oral gavage (˜200 uL) for three days. Groups 2, 3, and 4 were sacrificed on Day 4 to measure maximal testosterone suppression. Groups 5, 6, and 7 were allowed to recover for 14 days with a drug free washout period.

CYP1A2 [4] = experiment: CYP450 induction in vitro, CYP1A2; assay type: in vitro ADME
Human 17β-HSD5 = Human 17β-HSD5 (Homo sapiens (Human), UniProt P42330); experiment: 17β-HSD5 enzyme activity assay; assay type: biochemical; settings: 14C androstenedione to testosterone, TLC (FIG. 3)
CYP2C9 = CYP2C9 (Homo sapiens (Human), UniProt P11712); experiment: CYP450 inhibition in vitro, CYP2C9; assay type: in vitro ADME
[5] = tested on: rat bone, organ weight, and serum hormone parameters; experiment: Bone preservation despite reduction of LH and testosterone in rats; assay type: in vivo; settings: for Bone Mineral Density / FSH / LH / Levator Ani Muscle weight / Percent Bone Volume (BV/TV) / Prostate weight / Seminal Vesicles weight: Intact
intact and ORX rats = experiment: Prostate size, Compound IV versus DES in rats; assay type: in vivo
[6] = molecular target: glucocorticoid receptor (GR) (Rattus norvegicus (Rat), UniProt P06536); experiment: DES versus Compound IV, GR crossreaction (FIG. 12A); assay type: cell-based
CYP3A4 = experiment: CYP450 induction in vitro, CYP3A4; assay type: in vitro ADME
[7] = molecular target: retinoid X receptor (RXR-α) (Homo sapiens (Human), UniProt P19793); experiment: Cross-reactivity transcriptional activation assay, RXR-α; assay type: cell-based; settings: agonist and antagonist modes
Description: as §1

dogs = experiment: Single and repeated oral administration toxicity in dogs; assay type: in vivo
Description: Compound IV was well-tolerated by rats and dogs after single and repeated oral administration (up to 28 days).

CYP1A2 (Homo sapiens (Human), UniProt P05177), sequence (P05177 whole entry): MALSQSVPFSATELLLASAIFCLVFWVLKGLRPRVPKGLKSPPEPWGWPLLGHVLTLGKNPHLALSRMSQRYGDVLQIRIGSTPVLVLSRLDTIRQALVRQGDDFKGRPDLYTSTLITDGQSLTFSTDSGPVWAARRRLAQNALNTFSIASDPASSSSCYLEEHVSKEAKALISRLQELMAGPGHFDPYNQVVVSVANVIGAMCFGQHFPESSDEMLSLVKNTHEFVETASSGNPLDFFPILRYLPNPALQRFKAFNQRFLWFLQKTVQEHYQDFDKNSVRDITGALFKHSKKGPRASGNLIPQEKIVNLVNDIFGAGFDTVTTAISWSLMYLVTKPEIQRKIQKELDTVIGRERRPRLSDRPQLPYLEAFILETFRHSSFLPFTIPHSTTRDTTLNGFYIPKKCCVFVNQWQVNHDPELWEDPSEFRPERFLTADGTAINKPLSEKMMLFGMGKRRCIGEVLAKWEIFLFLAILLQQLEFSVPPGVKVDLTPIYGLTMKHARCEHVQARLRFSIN
Human 17β-HSD5, sequence (P42330 whole entry): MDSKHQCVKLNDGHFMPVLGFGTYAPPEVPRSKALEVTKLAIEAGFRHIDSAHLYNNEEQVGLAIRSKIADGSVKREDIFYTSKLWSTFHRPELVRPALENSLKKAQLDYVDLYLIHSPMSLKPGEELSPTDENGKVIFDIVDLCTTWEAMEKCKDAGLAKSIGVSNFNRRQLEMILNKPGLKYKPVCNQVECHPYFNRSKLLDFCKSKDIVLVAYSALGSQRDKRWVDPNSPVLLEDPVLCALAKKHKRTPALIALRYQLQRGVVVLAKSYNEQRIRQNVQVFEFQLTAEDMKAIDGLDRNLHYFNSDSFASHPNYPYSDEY
mineralocorticoids receptor (MR), sequence (P22199 whole entry, canonical isoform): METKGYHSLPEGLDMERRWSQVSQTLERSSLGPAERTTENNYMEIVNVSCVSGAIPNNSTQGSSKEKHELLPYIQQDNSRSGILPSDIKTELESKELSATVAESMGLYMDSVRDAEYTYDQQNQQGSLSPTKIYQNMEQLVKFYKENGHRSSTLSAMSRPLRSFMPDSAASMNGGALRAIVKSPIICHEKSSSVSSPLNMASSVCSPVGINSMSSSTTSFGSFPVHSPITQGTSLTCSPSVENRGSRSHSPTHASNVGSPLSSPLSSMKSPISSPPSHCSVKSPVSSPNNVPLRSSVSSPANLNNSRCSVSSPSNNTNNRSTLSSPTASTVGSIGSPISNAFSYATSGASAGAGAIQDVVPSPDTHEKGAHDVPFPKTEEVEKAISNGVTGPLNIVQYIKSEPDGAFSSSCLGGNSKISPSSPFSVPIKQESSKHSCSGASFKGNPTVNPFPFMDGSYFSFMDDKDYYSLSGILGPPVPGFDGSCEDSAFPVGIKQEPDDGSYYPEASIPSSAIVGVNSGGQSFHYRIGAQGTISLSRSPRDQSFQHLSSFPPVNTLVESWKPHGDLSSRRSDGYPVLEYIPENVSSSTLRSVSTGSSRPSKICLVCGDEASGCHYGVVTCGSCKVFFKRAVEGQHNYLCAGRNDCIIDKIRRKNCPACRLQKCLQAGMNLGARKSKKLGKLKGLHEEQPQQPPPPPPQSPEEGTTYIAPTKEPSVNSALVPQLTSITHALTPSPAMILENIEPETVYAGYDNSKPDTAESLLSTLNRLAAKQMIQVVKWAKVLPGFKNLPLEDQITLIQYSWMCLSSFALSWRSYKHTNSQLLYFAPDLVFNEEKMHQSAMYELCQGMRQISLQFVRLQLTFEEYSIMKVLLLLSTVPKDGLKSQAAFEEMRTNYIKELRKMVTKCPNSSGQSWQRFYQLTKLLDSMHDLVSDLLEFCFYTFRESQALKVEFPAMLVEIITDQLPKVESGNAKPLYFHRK
CYP2C9, sequence (P11712 whole entry): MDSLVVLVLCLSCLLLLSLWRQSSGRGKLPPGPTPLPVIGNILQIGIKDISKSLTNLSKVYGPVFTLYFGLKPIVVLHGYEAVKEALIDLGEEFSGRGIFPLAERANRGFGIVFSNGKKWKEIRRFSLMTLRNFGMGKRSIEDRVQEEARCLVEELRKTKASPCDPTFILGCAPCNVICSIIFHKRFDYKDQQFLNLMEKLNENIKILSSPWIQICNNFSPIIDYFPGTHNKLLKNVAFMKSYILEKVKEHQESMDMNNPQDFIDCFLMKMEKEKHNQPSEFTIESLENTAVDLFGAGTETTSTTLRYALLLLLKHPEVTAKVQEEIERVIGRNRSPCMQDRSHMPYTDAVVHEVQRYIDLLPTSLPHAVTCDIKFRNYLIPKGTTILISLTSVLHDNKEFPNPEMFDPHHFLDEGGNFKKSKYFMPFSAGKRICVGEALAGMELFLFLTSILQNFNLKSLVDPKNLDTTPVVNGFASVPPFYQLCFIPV
retinoid X receptor (RXR-α), sequence (P19793 whole entry): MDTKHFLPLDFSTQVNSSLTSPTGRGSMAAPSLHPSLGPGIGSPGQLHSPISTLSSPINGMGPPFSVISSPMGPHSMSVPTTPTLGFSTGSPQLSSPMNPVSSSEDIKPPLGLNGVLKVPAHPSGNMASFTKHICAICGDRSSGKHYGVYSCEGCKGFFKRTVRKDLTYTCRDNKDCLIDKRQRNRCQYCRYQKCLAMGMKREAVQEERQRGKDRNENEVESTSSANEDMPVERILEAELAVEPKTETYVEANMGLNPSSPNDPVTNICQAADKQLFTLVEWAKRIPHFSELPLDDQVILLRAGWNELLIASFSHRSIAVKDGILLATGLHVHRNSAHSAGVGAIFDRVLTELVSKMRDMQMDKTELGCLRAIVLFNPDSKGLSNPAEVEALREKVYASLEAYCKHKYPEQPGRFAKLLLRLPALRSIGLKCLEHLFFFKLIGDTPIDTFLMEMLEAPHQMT
glucocorticoid receptor (GR), sequence (P06536 whole entry): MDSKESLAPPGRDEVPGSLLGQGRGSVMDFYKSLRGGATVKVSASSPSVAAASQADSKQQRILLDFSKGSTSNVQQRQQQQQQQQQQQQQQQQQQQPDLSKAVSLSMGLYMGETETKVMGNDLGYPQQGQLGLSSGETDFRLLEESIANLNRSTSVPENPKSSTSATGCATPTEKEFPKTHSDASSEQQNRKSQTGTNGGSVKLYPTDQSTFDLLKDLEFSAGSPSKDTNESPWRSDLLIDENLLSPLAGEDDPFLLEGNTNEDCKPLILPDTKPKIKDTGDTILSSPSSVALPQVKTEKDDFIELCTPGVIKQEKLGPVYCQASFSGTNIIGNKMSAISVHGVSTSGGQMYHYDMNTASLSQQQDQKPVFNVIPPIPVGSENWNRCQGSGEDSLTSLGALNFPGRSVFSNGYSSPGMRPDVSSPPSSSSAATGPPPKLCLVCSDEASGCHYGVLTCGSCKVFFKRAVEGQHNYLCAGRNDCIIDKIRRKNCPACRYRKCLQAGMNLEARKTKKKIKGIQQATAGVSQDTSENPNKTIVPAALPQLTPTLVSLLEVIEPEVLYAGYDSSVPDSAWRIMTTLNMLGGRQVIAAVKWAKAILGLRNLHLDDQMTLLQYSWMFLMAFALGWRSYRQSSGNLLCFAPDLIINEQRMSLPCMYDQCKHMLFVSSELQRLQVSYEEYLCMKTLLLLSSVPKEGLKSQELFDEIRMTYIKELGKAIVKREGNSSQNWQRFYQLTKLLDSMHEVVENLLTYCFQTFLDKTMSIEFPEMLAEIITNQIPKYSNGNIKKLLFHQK

## O=C(c1ccc(O)c(F)c1)N(c1ccc(O)cc1)c1ccc(F)cc1 [Compound IV, 3-fluoro-N-(4-fluorophenyl)-4-hydroxy-N-(4-hydroxyphenyl)benzamide]
[1]; 100 mg
  Free Testosterone, mean change from baseline: −17.0%
  LH, mean change from baseline: 20.7%
  Serum PSA, mean change from baseline: −9.2%
  Total Testosterone, mean change from baseline: 3.9%
  decrease of PSA levels: 9.2%
  decrease of free testosterone levels: 17.0%
[1]; 300 mg
  Free Testosterone, mean change from baseline: −18.5%
  LH, mean change from baseline: 46.9%
  Serum PSA, mean change from baseline: −24.4%
  Total Testosterone, mean change from baseline: 7.3%
  decrease of PSA levels: 24.4%
  decrease of free testosterone levels: 18.5%
[1]; 600 mg
  Free Testosterone, mean change from baseline: −72.7%
  LH, mean change from baseline: 27.6%
  Serum PSA, mean change from baseline: −27.5%
  Total Testosterone, mean change from baseline: −51.9%
  decrease of PSA levels: 27.5%
  decrease of free testosterone levels: 72.7%
  decrease of total testosterone level: 51.9%
[1]; 1000 mg
  Free Testosterone, mean change from baseline: −53.2%
  LH, mean change from baseline: 29.2%
  Serum PSA, mean change from baseline: −29.9%
  Total Testosterone, mean change from baseline: −47.9%
  decrease of PSA levels: 29.9%
  decrease of free testosterone levels: 53.2%
  decrease of total testosterone level: 47.9%
[1]; 10 and 30 mg doses
  changes of PSA levels: No changes
[2]
  agonist or antagonist activity: did not display any agonist or antagonist activity
CYP1A2 [3]
  inhibition of CYP1A2: does not inhibit
Serum testosterone; 1 mg/kg oral for three days, after 14 day recovery
  serum testosterone levels: 3.3 ± 1.92 ng/mL
Serum testosterone; 1 mg/kg oral for three days, no recovery
  serum testosterone suppression: No significant suppression
Serum testosterone; 3 mg/kg oral for three days, after 14 day recovery
  serum testosterone levels: 3.00 ± 1.06 ng/mL
Serum testosterone; 3 mg/kg oral for three days, no recovery, baseline 6.4±3.1
  serum testosterone levels: 1.47 ± 0.26 ng/mL
Serum testosterone; 30 mg/kg oral for three days, after 14 day recovery
  serum testosterone levels: 3.8 ± 1.72 ng/mL
Serum testosterone; 30 mg/kg oral for three days, no recovery, baseline 6.4±3.1
  serum testosterone levels: 1.62 ± 0.49 ng/mL
Serum testosterone; rats, within 14 days of recovery
  reversibility of pharmacologic castration: reversible
CYP1A2 [4]
  induction of CYP1A2: does not induce
Human 17β-HSD5
  effect on 17β-HSD5 enzyme activity: partial inhibitory effect
CYP2C9
  Ki: 8 µM
[5]; 1 mg/kg per day oral
  Bone Mineral Density: 0.273^b g/cm^3
  FSH: 14.1^a,b ng/mL
  LH: 0.820^b ng/mL
  Levator Ani Muscle weight: 80.0^a,b % of Intact
  Percent Bone Volume (BV/TV): 20.0^b %
  Prostate weight: 69.2^a,b % of Intact
  Seminal Vesicles weight: 44.6^a,b % of Intact
[5]; 10 mg/kg per day oral
  Bone Mineral Density: 0.326^a,b g/cm^3
  FSH: 5.48^a,b ng/mL
  LH: 0.060^a,b ng/mL
  Levator Ani Muscle weight: 58.1^a % of Intact
  Percent Bone Volume (BV/TV): 25.9^a,b %
  Prostate weight: 30.7^a,b % of Intact
  Seminal Vesicles weight: 12.8^a,b % of Intact
[5]; 30 mg/kg per day oral
  Bone Mineral Density: 0.326^a,b g/cm^3
  FSH: 6.32^a,b ng/mL
  LH: 0.078^a,b ng/mL
  Levator Ani Muscle weight: 56.1^a % of Intact
  Percent Bone Volume (BV/TV): 25.5^a,b %
  Prostate weight: 30.1^a,b % of Intact
  Seminal Vesicles weight: 14.4^a,b % of Intact
[5]; intact animals
  dose levels with significant reduction of LH: ≥ 10 mg/kg per day
[5]; intact male rats, orally administered
  bone loss associated with LH suppression: completely prevented the bone loss
Intact and ORX rats; ORX rats (FIG. 11B)
  prostate size of ORX rats: moderate increase
Intact and ORX rats; rats (FIG. 11A), compared with DES
  reduction of prostate size: as effective as DES
[6]
  crossreaction with GR: did not
CYP3A4
  induction of CYP3A4: does not induce
[7]
  agonist or antagonist activity: did not display any agonist or antagonist activity
dogs; dogs, single and repeated oral administration (up to 28 days)
  tolerability: well-tolerated
dogs; dogs, up to 28 days oral
  pathologic changes in kidney, liver, heart and other non-target-related organs: no pathologic changes observed
dogs; male or female dogs, oral, up to 28 days
  toxicity findings: no serious physical signs, body weight effects, clinical pathology changes, ophthalmologic, electrocardiographic, or histopathologic changes
